The record followed here is patent US20260364080A1, “PYRAZOLO-PYRIMIDINONE COMPOUNDS FOR USE IN METHODS OF INHIBITING WEE1 A KINASE” (Acrivon Therapeutics, Inc., priority 2023, published 2026).

Test [1] concerns the target T1, Myt1 kinase (recombinant PMYT-1) (Homo sapiens, UniProt Q99640).
T1 construct: full length PMYT-1 was expressed by baculovirus in insect cells; purchased Invitrogen A30984; host or cells: insect cells (baculovirus)
T1 sequence (Q99640 1-499): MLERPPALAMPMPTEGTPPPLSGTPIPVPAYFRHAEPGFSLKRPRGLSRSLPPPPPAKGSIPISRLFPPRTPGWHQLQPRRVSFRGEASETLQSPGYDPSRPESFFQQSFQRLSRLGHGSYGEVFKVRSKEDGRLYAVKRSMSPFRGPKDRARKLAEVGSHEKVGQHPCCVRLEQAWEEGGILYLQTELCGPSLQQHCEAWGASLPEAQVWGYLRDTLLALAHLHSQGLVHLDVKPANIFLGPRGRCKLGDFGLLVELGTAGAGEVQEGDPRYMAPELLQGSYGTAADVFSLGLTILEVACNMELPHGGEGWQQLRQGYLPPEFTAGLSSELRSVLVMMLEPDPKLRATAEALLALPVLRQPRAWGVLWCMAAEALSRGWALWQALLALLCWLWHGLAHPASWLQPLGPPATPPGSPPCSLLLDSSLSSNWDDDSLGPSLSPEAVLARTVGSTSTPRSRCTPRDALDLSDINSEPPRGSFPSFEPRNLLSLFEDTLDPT
Description: Myt1 kinase binding assay (LanthaScreen Eu Kinase Binding Assay). The note with it: 3 nM tracer 178, 2.5 nM PMYT-1, 1 nM Eu-labeled antibody; read-out: Myt1 kinase Binding IC50. In short, it runs like this: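 Compound binding to Myt1 kinase was assessed using the LanthaScreen Eu Kinase Binding Assay. This europium-based binding format was applied to quantify how strongly each compound bound to the Myt1 enzyme, and the binding affinity was reported for each compound as an IC50 value.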

In test [2] the test system is DAOY cells. Description: Cell Titer Glo viability assay, DAOY cells. The test is classed as cell-based. The settings on record: Homo sapiens, 144 h, absolute EC50. The protocol: Each of an ACHN renal cell carcinoma cell line (ATCC) and a DAOY medulloblastoma cell line, and an A427 lung cancer line were cultured in Minimum Essential Medium Eagle supplemented with 10% fetal calf serum (Sigma), 1% Penicillin-Streptomycin and 10 mM HEPES buffer (HyClone). Cell cultures were kept in a humidified incubator at 37 °C and 5% CO2. Cells were routinely tested for Mycoplasma contamination.
ACHN cells, DAOY cells, or A427 cells were seeded at a density of 400, 250, or 500 cells per well respectively, in tissue culture treated 384 well plates (Corning Costar). After overnight incubation, cells were treated with drugs at concentrations ranging from 17 to 10 000 nM. Viability compared to untreated control was assessed at 144 h using Cell Titer Glo assay 2.0 (Promega). […] “NT” means the compounds was not tested in the indicated cells.
Background: In ATP-based viability assays light output follows the ATP content of the culture.

The subject of test [3] is ACHN cells. The test is described as follows: Cell Titer Glo viability assay, ACHN cells. The format is cell-based. The note with it: Homo sapiens, 144 h, absolute EC50. In short, it runs like this: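 Cells grown in MEM with 10% FCS were seeded at 500 (A427), 400 (ACHN) or 250 (DAOY) per well and treated the next day with compound at 17 to 10 000 nM. Viability relative to untreated control was read at 144 h by CellTiter-Glo 2.0.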

Test [4] concerns the target T2, recombinant human Wee1A kinase (Homo sapiens, UniProt P30291).
T2 construct: full length Wee1 kinase was expressed by baculovirus in insect cells; purchased Invitrogen PV3817; host or cells: insect cells (baculovirus)
Description: Wee1A kinase binding assay (LanthaScreen Eu time-resolved FRET). The settings on record: 30 nM tracer 178, 5 nM Wee1A kinase, 2 nM Eu-labeled antibody; 60 minutes at room temperature; read-out: Wee1A kinase Binding IC50. In short, it runs like this: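 Full-length, baculovirus-expressed GST-tagged Wee1A (5 nM) was mixed with 2 nM Eu-anti-GST antibody, 30 nM kinase tracer 178 and compound (1% DMSO). Buffer was 50 mM HEPES pH 7.5, 10 mM MgCl2, 1 mM EGTA, 0.01% Brij-35, incubated 60 min at room temperature. TR-FRET 665/615 nm emission ratios from duplicates were curve-fitted.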
In general terms: In TR-FRET formats the signal depends on donor and acceptor labels being close together.

Test [5] has as its target T3, Myt1 kinase (CDK1 Thr14 phosphorylation in DAOY medulloblastoma cells) (Homo sapiens, UniProt Q99640).
T3 construct: pCDK1 Thr14 AlphaLISA read-out
T3 sequence (Q99640 1-499): T1 sequence (Q99640 1-499)
Description: AlphaLISA assay, Myt1 kinase target engagement (phospho-CDK1 Thr14) in DAOY cells. The format is cell-based. The settings on record: 4 h treatment, read-out: CDK1 Thr14 Phosphorylation EC50. In short, it runs like this:
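Cells seeded at 10,000 (DAOY) or 20,000 (ACHN) per well, treated 24 h later for 4 h with compound at 7–5000 nM. Lysates analysed by AlphaLISA SureFire Ultra phospho-CDK1 (Thr14) with donor/acceptor beads; EC50 from dose-response curves.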
(Alpha assays give light when donor and acceptor beads are brought close together.)

Test [6] has as its target T4, Wee1A kinase (CDK1 Tyr15 phosphorylation in ACHN renal cell carcinoma cells) (Homo sapiens, UniProt P30291).
T4 construct: pCDK1 Tyr15 immunofluorescence read-out
The test is described as follows: High-content imaging of pCdk1 Y15, Wee1A kinase target engagement in ACHN cells. The note with it: 4 h treatment, nuclear positivity for pCdk1 Y15 vs DMSO control, read-out: CDK1 Tyr15 Phosphorylation EC50. The format is cell-based. In short, it runs like this:
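EC50 values come from the per-well fraction of cells with nuclear pCdk1 Y15 staining, normalised to DMSO control, by automated immunofluorescence imaging. Cells were ACHN renal carcinoma, treated 4 h with compound at 7–5,000 nM or 0.3–200 nM.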

T2 sequence (P30291 whole entry): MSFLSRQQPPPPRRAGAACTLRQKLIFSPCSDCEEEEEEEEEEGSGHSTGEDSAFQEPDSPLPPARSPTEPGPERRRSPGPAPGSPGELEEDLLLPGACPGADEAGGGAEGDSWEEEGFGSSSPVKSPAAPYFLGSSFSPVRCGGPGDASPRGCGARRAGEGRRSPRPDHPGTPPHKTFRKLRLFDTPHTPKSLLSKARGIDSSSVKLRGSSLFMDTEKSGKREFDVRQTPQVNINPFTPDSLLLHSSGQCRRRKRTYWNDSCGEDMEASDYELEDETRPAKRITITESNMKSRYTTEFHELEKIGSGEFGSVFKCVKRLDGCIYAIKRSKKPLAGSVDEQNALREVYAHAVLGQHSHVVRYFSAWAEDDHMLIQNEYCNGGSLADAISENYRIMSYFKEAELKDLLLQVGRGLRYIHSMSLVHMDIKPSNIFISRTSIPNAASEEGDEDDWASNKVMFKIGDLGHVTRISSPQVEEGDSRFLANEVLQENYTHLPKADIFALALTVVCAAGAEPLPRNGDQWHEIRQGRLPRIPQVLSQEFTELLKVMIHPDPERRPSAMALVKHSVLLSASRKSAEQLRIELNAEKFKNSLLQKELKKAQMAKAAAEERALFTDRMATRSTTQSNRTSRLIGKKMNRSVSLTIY
T4 sequence (P30291 whole entry): as above

For orientation: IC50 means the concentration at which inhibition is half-maximal. What is called EC50 is the concentration that produces a half-maximal response. For `C=CCn1c(=O)c2cnc(Nc3ccc(F)cc3)nc2n1-c1cccc(OC2CCN(C)CC2)n1` [Compound 207, 6-[(4-fluorophenyl)amino]-1-{6-[(1-methylpiperidin-4-yl)oxy]pyridin-2-yl}-2-(prop-2-en-1-yl)-1H,2H,3H-pyrazolo[3,4-d]pyrimidin-3-one], the results for the IC50 in test [1] and in test [4] were 20 to 100 nM and less than 10 nM, respectively. For the same compound, the EC50 in test [2] is no more than 100 nM; in test [3], no more than 100 nM; in test [5], 500 to 1000 nM; in test [6], less than 100 nM.

`C=CCn1c(=O)c2cnc(Nc3ccc4scnc4c3)nc2n1-c1cccc(OC2CCN(C)CC2)n1` [Compound 209, 2-allyl-6-(benzo[d]thiazol-5-ylamino)-1-(6-((1-methylpiperidin-4-yl)oxy)pyridin-2-yl)-1,2-dihydro-3H-pyrazolo[3,4-d]pyrimidin-3-one]: the IC50 was less than 20 nM in test [1] and less than 10 nM in test [4]. Moreover, the EC50 in test [2] is no more than 100 nM; in test [3], no more than 100 nM; in test [5], less than 200 nM; in test [6], less than 100 nM.

Consider `C=CCn1c(=O)c2cnc(Nc3ccc4oc(C)nc4c3)nc2n1-c1cccc(OC2CCN(C)CC2)n1` [Compound 231, 2-allyl-6-(2-methyl-1,3-benzoxazol-5-ylamino)-1-[6-(1-methyl-4-piperidyloxy)-2-pyridyl]-1,2-dihydro-3H-1,2,5,7-tetraazainden-3-one], for which the IC50 in test [1] is less than 20 nM; in test [4], less than 10 nM. The EC50 is no more than 100 nM in test [2], no more than 100 nM in test [3], 200 to 500 nM in test [5] and less than 100 nM in test [6].

With `C=CCn1c(=O)c2cnc(Nc3ccc4c(ccn4C)c3)nc2n1-c1cccc(OC2CCNCC2)n1` [Compound 236, 2-allyl-6-((1-methyl-1H-indol-5-yl)amino)-1-(6-(piperidin-4-yloxy)pyridin-2-yl)-1,2-dihydro-3H-pyrazolo[3,4-d]pyrimidin-3-one], the IC50 in test [1] was 20 to 100 nM; in test [4], less than 10 nM. For the same compound, the EC50 was no more than 100 nM in test [2], no more than 100 nM in test [3], 200 to 500 nM in test [5] and less than 100 nM in test [6].

In the case of `C=CCn1c(=O)c2cnc(Nc3ccc4c(cnn4C(C)C)c3)nc2n1-c1cccc(OC2CCN(C)CC2)n1` [Compound 248, 2-allyl-6-(1-isopropyl-1H-indazol-5-ylamino)-1-[6-(1-methyl-4-piperidyloxy)-2-pyridyl]-1,2-dihydro-3H-1,2,5,7-tetraazainden-3-one], the IC50 in test [1] was less than 20 nM; in test [4], less than 10 nM. Further, the EC50 in test [2] was no more than 100 nM; in test [3], no more than 100 nM; in test [5] it was less than 200 nM; in test [6] it was less than 100 nM.

In the case of `C=CCn1c(=O)c2cnc(Nc3ccc4ncsc4c3)nc2n1-c1cccc(OC2CCN(C)CC2)n1` [Compound 303, 2-allyl-6-(1,3-benzothiazol-6-ylamino)-1-[6-(1-methyl-4-piperidyloxy)-2-pyridyl]-1,2-dihydro-3H-1,2,5,7-tetraazainden-3-one], the IC50 in test [1] is less than 20 nM; in test [4], less than 10 nM. Moreover, the 50% effective concentration (EC50) in test [2] was 100 to 500 nM; in test [3], no more than 100 nM; in test [5], 200 to 500 nM; in test [6] it was less than 100 nM.

Regarding `C=CCn1c(=O)c2cnc(Nc3ccc4c(c3)OCO4)nc2n1-c1cccc(OC2CCN(C)CC2)n1` [Compound 307, 2-allyl-6-(2H-1,3-benzodioxol-5-ylamino)-1-[6-(1-methyl-4-piperidyloxy)-2-pyridyl]-1,2-dihydro-3H-1,2,5,7-tetraazainden-3-one], the IC50 in test [1] is 20 to 100 nM; in test [4], less than 10 nM. Moreover, the EC50 is no more than 100 nM in test [2], no more than 100 nM in test [3], 200 to 500 nM in test [5] and less than 100 nM in test [6].

On to `C=CCn1c(=O)c2cnc(Nc3ccc4ccoc4c3)nc2n1-c1cccc(OC2CCN(C)CC2)n1` [Compound 308, 2-allyl-6-(1-benzofuran-6-ylamino)-1-[6-(1-methyl-4-piperidyloxy)-2-pyridyl]-1,2-dihydro-3H-1,2,5,7-tetraazainden-3-one], for which the IC50 in test [1] was less than 20 nM; in test [4], less than 10 nM. In addition, the EC50 is no more than 100 nM in test [2], no more than 100 nM in test [3], less than 200 nM in test [5] and less than 100 nM in test [6].

For `C=CCn1c(=O)c2cnc(Nc3ccc4occc4c3)nc2n1-c1cccc(OC2CCN(C)CC2)n1` [Compound 309, 2-allyl-6-(1-benzofuran-5-ylamino)-1-[6-(1-methyl-4-piperidyloxy)-2-pyridyl]-1,2-dihydro-3H-1,2,5,7-tetraazainden-3-one], the IC50 is less than 20 nM in test [1] and less than 10 nM in test [4]. Moreover, the EC50 is no more than 100 nM in test [2], no more than 100 nM in test [3], less than 200 nM in test [5] and less than 100 nM in test [6].

Regarding `C=CCn1c(=O)c2cnc(Nc3ccc4nc(C)oc4c3)nc2n1-c1cccc(OC2CCN(C)CC2)n1` [Compound 311, 2-allyl-6-(2-methyl-1,3-benzoxazol-6-ylamino)-1-[6-(1-methyl-4-piperidyloxy)-2-pyridyl]-1,2-dihydro-3H-1,2,5,7-tetraazainden-3-one], the IC50 in test [1] was 20 to 100 nM; in test [4] it was less than 10 nM. In addition, the EC50 was no more than 100 nM in test [2], no more than 100 nM in test [3], less than 200 nM in test [5] and less than 100 nM in test [6].

As for `C=CCn1c(=O)c2cnc(Nc3ccc4sncc4c3)nc2n1-c1cccc(OC2CCN(C)CC2)n1` [Compound 320, 2-allyl-6-(1,2-benzisothiazol-5-ylamino)-1-[6-(1-methyl-4-piperidyloxy)-2-pyridyl]-1,2-dihydro-3H-1,2,5,7-tetraazainden-3-one], the IC50 was less than 20 nM in test [1] and less than 10 nM in test [4]. For the same compound, the EC50 in test [2] is no more than 100 nM; in test [3] it was no more than 100 nM; in test [5] it was 200 to 500 nM; in test [6], less than 100 nM.

Consider `C=CCn1c(=O)c2cnc(Nc3ccc4cccnc4c3)nc2n1-c1cccc(OC2CCN(C)CC2)n1` [Compound 335, 2-allyl-1-[6-(1-methyl-4-piperidyloxy)-2-pyridyl]-6-(7-quinolylamino)-1,2-dihydro-3H-1,2,5,7-tetraazainden-3-one], for which the concentration for half-maximal inhibition (IC50) in test [1] is less than 20 nM; in test [4] it was less than 10 nM. For the same compound, the EC50 in test [2] was no more than 100 nM; in test [3] it was no more than 100 nM; in test [5], 200 to 500 nM; in test [6], less than 100 nM.
